Data from patent US10308959B2, “Methods, systems, and compositions relating to MiRNA-146a” (Henry Ford Health System, priority 2013, dated 2019).

Test system: diabetic mice (db/db mice)
Assay: Diabetic peripheral neuropathy in type II diabetic mice (db/db)
Format: in vivo, mouse
Description: DRG neurons play an important role in sensory conduction. Diabetic peripheral neuropathy is characterized by the loss and/or degeneration of neurons and the slowing of nerve conduction velocities. Using a mouse model of type II diabetes which develops severe peripheral neuropathy, we measured miR-146a expression in DRG neurons. […] FIG. 5H is quantitative data of caspase 3 positive cells. FIGS. 5I and J are neurological function measured by motor nerve conduction velocity (MCV, FIG. 5I) and sensory nerve conduction velocity (“SCV”, FIG. 5J). Red, blue, and black lines represent non-diabetic mice, diabetic mice treated with saline, and diabetic mice treated with sildenafil, respectively. *P<0.01 versus the nondiabetic group. #P<0.05 versus the diabetic group treated with saline. n=10/group. […] Elevation of miR-146a in DRG neurons by sildenafil rescued diabetes-induced DRG neuron death and improved neurological outcomes (FIG. 5).

[1] = diabetic mice treated with sildenafil

With `CCCc1nn(C)c2c(=O)[nH]c(-c3cc(S(=O)(=O)N4CCN(C)CC4)ccc3OCC)nc12` [sildenafil] the “diabetes-induced DRG neuron death (caspase 3 positive cells)” value [1] was “rescued”, the “miR-146a in DRG neurons” value [1] was “Elevation” and the “neurological outcomes (MCV, SCV)” value (diabetic mice treated with sildenafil vs saline) was “improved”.
